This is an account of results in patent US20260027073A1, “USE OF SMALL-MOLECULE COMPOUND HAVING NAPHTHYLAMINE STRUCTURE” (HANGZHOU PHECDAMED CO., LTD., priority 2023, published 2026).

Molecules are shown by their SMILES.

In assay [1] the test system is LPS-induced sepsis in mice. Nature of the assay: LPS-induced sepsis survival. Format: in vivo, C57 mice. As to conditions: 8th day; 10 mg/kg intraperitoneal once a day; LPS alone about 20%; FIG. 33. Here is the method:
A constructed preclinical sepsis model is a LPS-induced sepsis in mice. Injection of purified LPS into mice by intraperitoneal route or intravenous route can lead to activation of the innate immune system and simulate fulminant Gram-negative bacterial infections, the specific modeling method is as follows: 20-25 g C57 mice were selected, and 20 mg/kg LPS was injected intraperitoneally according to the body weight (the LPS was dissolved with PBS), and the experiment was divided into three groups, a model control group (LPS), a positive control treatment group (prednisone, 10 mg/kg), TJ01-013 treatment group (TJ01-013, 10 mg/kg), the mode of administration was intraperitoneal injection, the volume of administration was 5 ml/kg, the frequency of administration was once a day, and the biological deaths and changes in body weights of the mice were observed and recorded every day, and the mice were regarded as physiologically dead if their body weights decreased by 20% or more compared with that before the administration of LPS. Survival curves were plotted based on deaths observed up to 8 days after administration.

Assay [2] has as its system mouse bone marrow mesenchymal stem cells. Nature of the assay: Senescence of mouse bone marrow mesenchymal stem cells by passaging. It is filed as cell-based. The following applies: 10 μM. Here is the method: Extraction of bone marrow mesenchymal stem cells: C57 mice weighing about 25 g were selected, and after anesthesia with 30 mg/kg chloral hydrate, the femur and tibia were removed and put into a Petri dish, one end of the femur and tibia were cut off to fully expose the bone marrow cavity, and a 1 ml syringe was used to extract the DMEM/F12 medium, and the tip of the needle was pricked into the bone marrow cavity to rinse the bone marrow, and a 15 ml centrifuge tube was connected underneath to make the rinsed liquid flow into the centrifuge tube, and the rinsing was repeated several times until the bone marrow cavity was rinsed clean. The rinsed suspension was blown repeatedly with a pipette to make the cells in the rinsed liquid as single-cell as possible, and the supernatant was transferred to another tube after standing still for a few minutes, and the cell suspension was continued to blow to make the cells well dispersed. The obtained cell suspension was centrifuged at 1000 rpm for 5 min, and after removing the residual supernatant, 1 ml of DMEM/F12 medium was added, and after repeated blowing, the CD45-Sca-1+PDGFRα+high-purity primary mouse bMSC cell line was sorted out by flow cytometric sorting, and the sorted cells were dispensed into culture flasks. The cells were observed under the microscope and placed in the incubator at 37° C., 5% CO2 to incubate, and the solution was replaced for 72 h, the drug administration treatment was performed at the first passaging, and then 10 μM TJ01-013 was given to each passaging thereafter, labeled as Con-Y at the 2nd generation, and labeled as Con-O at the 9th generation, and the drug administration treatment groups were given until the 9th generation, and all the cells were placed under the microscope for observing the morphology of the cells, and the proportion of the SA-β-gal+ cells was counted. The levels of the DNA damage marker γ-H2AX and the heterochromatin modification H3K9me3 after TJ01-013 treatment were detected by immunofluorescence technique (procedure described previously).

For assay [3], the system named is HGPS-MSC. The assay can be described thus: Senescence of HGPS patient derived mesenchymal stem cells. It is filed as cell-based, human. The following applies: 10 μM. Here is the method:
Mesenchymal stem cells HGPS-MSC differentiated from pluripotent stem cells (iPSC) of patients with Hutchinson-Gilford Progeria Syndrome (HGPS) were taken for culture, and the experiment was divided into three groups, namely, young cells cultured for 7 generations, labeled as Con-Y; senescent cells cultured for 12 generations, labeled as Con-O; and the administration group to which 10 μM of TJ01-013 was added during the process of culture, similarly cultured up to the 12th generation, labeled as Con-O+TJ01-013; the drug administration group to which 10 μM positive drug Ionafarnib was added during the process of culture, similarly cultured up to the 12th generation, and labeled as Con-O+ Ionafarnib; after the end of the treatment, all the cells were placed under the microscope to observe the morphology of the cells, and the proportion of SA-β-gal+ cells was counted. The levels of DNA damage marker γ-H2AX and heterochromatin modification H3K9me3 after TJ01-013 treatment and Ionafarnib treatment were detected by immunofluorescence technique (the specific procedure was described previously).

`O=C(O)C[S+]([O-])c1cc(NS(=O)(=O)c2ccc(Br)cc2)c2ccccc2c1O` (stereo not shown) [I-1] showed a survival rate in assay [1] of 80%. Moreover, the “percentage of SA-β-gal+ cells” value in assay [2] (9th generation, vs Con-O, FIG. 48) is reported as “significantly decreased”; in assay [3] (12th generation, vs Con-O, FIG. 54), “significantly decreased”. Besides, the “expression level of heterochromatin-modified H3K9me3” value is “restored its expression level to some extent” in assay [2] (Con-O cells, FIG. 50) and “restored its expression level to some extent” in assay [3] (FIG. 56). In addition, the “level of DNA damage marker γ-H2AX” value is “significantly reduced” in assay [2] (aged cells, FIG. 49) and “significantly reduced” in assay [3] (FIG. 55).
